Assay results reported in patent US20050261246A1, “Methods for treating inflammatory and autoimmune diseases” (priority 2004, published 2005).

Experiments:
CAIA mice = assay: Collagen type II antibody-induced arthritis (CAIA) mouse model; format: in vivo
Procedure: FIG. 9A-H the effect of SNS on hind paw swelling in CAIA mice. A and E: Day 0, B and F: Day 7, C: Day 10 in PBS-treated CAIA, G: Day 10 in SNS-treated CAIA after 3 injections, D: Day 12 in PBS-treated mice, and H: Day 12 in SNS-treated CAIA mice after five injections. SNS treatment was started on day 7 after anti-collagen type II mAb injection and i.p. injections of SNS were continued for 5 consecutive days at a dose of 5 mg/kg.
FIG. 10 is a graph of the data (exemplified in FIG. 9) on CAIA progression and effect of SNS on foot pad measurements in CAIA mice. Solid square: PBS-treated CAIA group (n=5), closed triangle: SNS-treated CAIA group (n=5). SNS treatment (i.p.) was started on day 7 after anti-collagen type II mAb injection, and SNS injections were continued for 5 consecutive days at a dose of 5 mg/kg. Values represent mean±S.E.M. P<0.0001. Statistical analysis was performed using t-test.
Sections of ankle joints were stained with hematoxylin and eosin (original magnification, ×10) on day 21 after mAb injection. SNS treatment (i.p.) was started on day 7 after anti-collagen type II mAb injection, and SNS injections were continued for 5 consecutive days at a dose of 5 mg/kg. Representative joint sections in non-CAIA group (A and D), PBS-treated CAIA (B and E), and SNS-treated CAIA (C and F) are shown at magnifications of ×10 and ×40, respectively.
Collagen-induced arthritis (CIA) is an experimental model for rheumatoid arthritis. In this model, antibodies against type II collagen are critical for the pathogenesis of arthritis. […] This model system has been used for investigating underlying cellular and molecular mechanisms during the effector phase of CIA (1).
FIGS. 9-10 show CAIA progression and the effect of SNS on hind paw swelling in CAIA mice. […] A and E: Day 0 (mAb immunization), B and F: Day 7 after antibody injection, C. Day10 after immunization in PBS-treated CAIA, G: Day 10 after immunization in SNS-treated CAIA after three SNS injections, D: Day 12 after immunization in PBS-treated CAIA mice, and […]: Day 12 after immunization in SNS-treated CAIA mice after five SNS injections. Ib. […] Solid square: control CAIA group treated with PBS (n=5), closed triangle: sodium narcistatin-treated CAIA group (n=5). Values represent mean±S.E.M. p<0.0001 vs. control CAIA group.

[1] = test system: TNFα and MCP-1 production; assay: In vivo air-pouch assay, LPS-stimulated cytokine production; design: species or system mouse; details: SNS 5 mg/kg then LPS 1 μg/ml, vs LPS-stimulated controls
Procedure: The reduction of TNF-alpha (P=0.04) and MCP-1 (P=0.03) in SNS-treated mice upon LPS stimulation. PBS_PBS: PBS followed by PBS; PBS_LPS: PBS followed by LPS (1 μg/ml); SNS_PBS: SNS followed by PBS; SNS_LPS: SNS (5 mg/kg) followed by LPS (1 μg/ml). Results are derived from three independent experiments. Statistical analysis was performed using one-way ANOVA.
To further test effects of SNS in whole animals, we established an air-pouch assay to evaluate the effect of the compound, SNS, on LPS-stimulated cytokine production, following a procedure described previously (9). (See FIG. 14) Mice were pre-treated with PBS or SNS then challenged with LPS. The pouch wash-out was then analyzed for cytokine production using BD™ CBA Mouse Inflammatory Kit (BD Biosciences).

[2] = test system: CD11c+/CD40+/CD86+ spleen cells; assay: Splenic dendritic, B and T cells in non-CAIA Balb/c mice treated with SNS (FACS); format: in vivo, mouse; details: 5 mg/kg i.p. five consecutive days
Procedure: (A) Reduction of CD11c+/CD40+/CD86+ cells isolated from spleens of non-CAIA Balb/c mice treated i.p. with SNS at 5 mg/kg or with PBS for 5 consecutive days. Spleens were isolated on the next day after the last SNS injection and splenocytes were analyzed using FACS. The percentage value represents CD11c+/CD40+/CD86+ cell percentage out of the entire splenocyte population. […] Values on X and Y axes represent fluorescence intensity for cell surface markers CD11c and CD40, B220, and CD90.2 (Thy-1), respectively.
Balb/c mice were treated i.p. with SNS for five consecutive days at 5 mg/kg and their spleen were harvested the next day after the last injection. Control mice received same numbers of injection of PBS. Splenic cells were stained with fluorescence-labeled antibodies, and analyzed by flow cytometry.

In the case of `O=C1N[C@@H]2C(=C[C@H](O)[C@H]3OP(=O)(O)O[C@H]32)c2cc3c(c(O)c21)OCO3` [SNS, sodium narcistatin], the “joint swelling after the fifth injection” value (CAIA mice; CAIA mice, 5 mg/kg i.p.) is reported as “swelling disappeared”, the “joint swelling after the third injection” value (CAIA mice; CAIA mice, 5 mg/kg i.p.) is reported as “reduced joint swelling” and the ankle width (CAIA mice; CAIA mice, 5 mg/kg i.p. 5 consecutive days from day 7, vs saline-treated, P<0.0001) is reported as “significant decrease”. For the same compound, the “histology of ankle joints: inflammatory infiltration, cartilage and bone destruction” value (CAIA mice; CAIA mice, day 21, hematoxylin and eosin) was “very little inflammatory infiltration to ankle joints and virtually no cartilage and bone destruction”, the “toxicity in CAIA study” value (CAIA mice; at the dosage used) was “toxic to the animals” and the “toxicity, SNS treatment only” value (CAIA mice; mice that only received SNS) was “did not observe toxicity”. For the same compound, the “toxicity, combination of SNS and LPS treatment” value (CAIA mice; mouse, in vivo) was “appeared to increase toxicity”, the “MCP-1 in air-pouch wash-out” value ([1]; P=0.03) was “significantly reduced” and the “TNFα in air-pouch wash-out” value ([1]; P=0.04) was “significantly reduced”. For the same compound, the “CD11c+/CD86+/CD40+ spleen cells (mature dendritic cells)” value [2] was “reduction of CD11c+/CD86+/CD40+ spleen cells” and the “T- and B-cell profile (B220, CD90.2)” value [2] was “not affected”.
